Source: article PMC8557474, “Reliability of the AR-CALUX®In Vitro Method Used to Detect Chemicals with (Anti)Androgen Activity: Results of an International Ring Trial” (Toxicological Sciences, 2021)
≈ marks a conversion by molar mass, not a printed value.

Legend:
[1] = physchem
Experimental: It details the cell cultivation and seeding procedure, the preparation of the reference, control and test chemicals, the procedure for agonist testing and antagonist testing, prescreen runs, and comprehensive runs, as well as data analysis and data interpretation. This SOP also includes references to the SOPs for solubility testing and cytotoxicity testing. […] Solubility was tested both in the solvent and in media under similar circumstances as would be required during the (ant)agonist testing. The initial concentration to be tested was prescribed at 50 mg/ml. Starting from the highest soluble concentration, cytotoxicity was determined with an LDH assay. Visual checking of cytotoxicity in all wells of the plate was however also required for each run.
This included an investigation by heating, centrifugation, microscopy, and visual checking. […] For the purpose of the validation study, the labs were requested to start from 50 mg/ml as the maximal stock concentration to be tested.

[2] = target: T1, human androgen receptor (hAR) (Homo sapiens, UniProt P10275); assay: AR-CALUX antagonist assay (medium spiked with DHT at EC50); format: cell-based
T1 construct: host or cells: U2-OS human osteosarcoma cells (ATCC HTB 96), stably transfected (AR-CALUX cell line)
T1 sequence (P10275 1-920): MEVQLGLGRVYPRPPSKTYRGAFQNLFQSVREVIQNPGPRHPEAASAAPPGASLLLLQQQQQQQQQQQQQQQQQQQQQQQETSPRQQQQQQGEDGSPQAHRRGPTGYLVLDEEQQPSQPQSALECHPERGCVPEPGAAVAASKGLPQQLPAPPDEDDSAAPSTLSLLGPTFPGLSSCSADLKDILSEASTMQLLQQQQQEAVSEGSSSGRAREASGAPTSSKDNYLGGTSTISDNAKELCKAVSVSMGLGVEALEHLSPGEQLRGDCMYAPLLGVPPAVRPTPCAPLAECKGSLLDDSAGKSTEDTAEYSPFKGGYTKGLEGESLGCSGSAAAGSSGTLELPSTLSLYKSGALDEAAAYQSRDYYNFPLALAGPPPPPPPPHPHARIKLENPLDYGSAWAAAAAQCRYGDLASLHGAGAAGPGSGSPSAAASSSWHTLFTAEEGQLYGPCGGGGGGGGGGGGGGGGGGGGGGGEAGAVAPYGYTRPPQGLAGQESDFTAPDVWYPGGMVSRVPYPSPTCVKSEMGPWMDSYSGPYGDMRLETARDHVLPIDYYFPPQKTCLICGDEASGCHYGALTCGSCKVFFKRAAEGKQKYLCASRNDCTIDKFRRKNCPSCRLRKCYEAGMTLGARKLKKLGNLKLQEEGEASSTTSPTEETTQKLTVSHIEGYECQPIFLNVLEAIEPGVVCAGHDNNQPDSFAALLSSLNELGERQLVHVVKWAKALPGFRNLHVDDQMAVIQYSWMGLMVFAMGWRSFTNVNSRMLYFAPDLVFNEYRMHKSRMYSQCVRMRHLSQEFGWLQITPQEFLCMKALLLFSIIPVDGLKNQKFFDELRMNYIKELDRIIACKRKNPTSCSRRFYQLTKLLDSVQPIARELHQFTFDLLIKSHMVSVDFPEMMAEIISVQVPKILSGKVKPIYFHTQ
Excerpt: (§1) The AR-CALUX® cell line was created by BioDetection Systems (BDS). It can be purchased from BDS with a license (https://www.biodetectionsystems.com). The human osteosarcoma cell line U2-OS (ATCC HTB 96) was transfected with 2 constructs: pSG5-neo-hAR carrying the cDNA of a human androgen receptor (hAR) under a constitutive promoter, and, a luciferase reporter gene which is preceded by a triple tandem of AREs in front of a TATA box (3x ARE Luc). […] The AR-CALUX® cell line was obtained from the test method developer BDS. EURL ECVAM prepared a master cell bank and a large working cell bank which were tested for the absence of mycoplasma, bacteria, fungi, and yeast and for the absence of Hepatitis B and C and HIV. In addition, to verifying the authenticity of the cell line, Short Tandem Repeat (STR) profiling was carried out to confirm the test system to be U2-OS cells. […] The laboratories were requested, at the end of each part of the study (Parts 1, 2, and 3), to perform a mycoplasma test of their choice. Additional aliquots were sent to EURL ECVAM for a reanalysis of authenticity.
(§2) Subsequently, the test chemical was assessed with a prescreen run (dilution steps of 10) and simultaneously with the quantitative cytotoxicity test to determine (1) cytotoxic concentrations, (2) the response, and (3) the appropriate dose range to be tested. […] The cytotoxicity test was performed once more. Test chemicals were diluted in media and consisted of 8 serial dilutions. Each dilution was tested in triplicate.
(§3) Each experiment (run) was comprised of a maximum of 6 plates. The first plate would contain 8 serial dilutions of the reference chemical DHT (for agonism) or Flutamide (for antagonism), while the positive and negative controls were added at fixed concentrations. In addition, a solvent control was added (medium without the chemical but with DMSO 0.1%).
For the antagonist assay, the medium was supplemented with DHT at EC50 concentration (standard assay). […] Each antagonist assay was accompanied by a specificity control test carried out on the same plate.
A. Positive (competitive antagonist) when the relative induction (Yc) of the test item is ≤ 80% (REF RPC80) for two or more consecutive concentrations and […]

[3] = target: T1, human androgen receptor (hAR); assay: cell-based; format: cell-based
Excerpt: as §1, §2, §3
A. Positive when the relative induction (Yc) of the test item is ≥ 10% (REF RPC10) for two or more consecutive concentrations.

[4] = aqueous buffer, kinetic from dmso stock, Solubility in medium, Lab 1, assay medium, Lab 1
[5] = aqueous buffer, kinetic from dmso stock, Solubility in medium, Lab 2, assay medium, Lab 2
[6] = aqueous buffer, kinetic from dmso stock, Solubility in medium, Lab 3, assay medium, Lab 3
[7] = aqueous buffer, kinetic from dmso stock, Solubility in medium, Lab 4, assay medium, Lab 4
[8] = organic solvent or mixture, thermodynamic from solid, Solubility in DMSO, Lab 1, DMSO, Lab 1, highest tested 50 mg/ml
[9] = organic solvent or mixture, thermodynamic from solid, Solubility in DMSO, Lab 2, DMSO, Lab 2, highest tested 50 mg/ml
[10] = organic solvent or mixture, thermodynamic from solid, Solubility in DMSO, Lab 3, DMSO, Lab 3, highest tested 50 mg/ml
[11] = organic solvent or mixture, thermodynamic from solid, Solubility in DMSO, Lab 4, DMSO, Lab 4, highest tested 50 mg/ml
[12] = DMSO, organic solvent or mixture, thermodynamic from solid, Solubility in DMSO, Lab 1, DMSO, Lab 1, highest tested 50 mg/ml
[13] = DMSO, organic solvent or mixture, thermodynamic from solid, Solubility in DMSO, Lab 2, DMSO, Lab 2, highest tested 50 mg/ml
[14] = DMSO, organic solvent or mixture, thermodynamic from solid, Solubility in DMSO, Lab 3, DMSO, Lab 3, highest tested 50 mg/ml
[15] = DMSO, organic solvent or mixture, thermodynamic from solid, Solubility in DMSO, Lab 4, DMSO, Lab 4, highest tested 50 mg/ml
[16] = assay medium, aqueous buffer, kinetic from dmso stock, Solubility in medium, Lab 1, assay medium, Lab 1
[17] = assay medium, aqueous buffer, kinetic from dmso stock, Solubility in medium, Lab 2, assay medium, Lab 2
[18] = assay medium, aqueous buffer, kinetic from dmso stock, Solubility in medium, Lab 3, assay medium, Lab 3
[19] = assay medium, aqueous buffer, kinetic from dmso stock, Solubility in medium, Lab 4, assay medium, Lab 4

SMILES | solubility [1, 4] [µg/mL] | solubility [1, 5] [µg/mL] | solubility [1, 6] [µg/mL] | solubility [1, 7] [µg/mL] | solubility [1, 8] [µg/mL] | solubility [1, 9] [µg/mL] | solubility [1, 10] [µg/mL] | solubility [1, 11] [µg/mL] | solubility [1, 12] [µg/mL] | solubility [1, 13] [µg/mL] | solubility [1, 14] [µg/mL] | solubility [1, 15] [µg/mL] | solubility [1, 16] [µg/mL] | solubility [1, 17] [µg/mL] | solubility [1, 18] [µg/mL] | solubility [1, 19] [µg/mL] | also measured
C[C@]1(O)CC[C@H]2[C@@H]3CCC4=CC(=O)CC[C@]4(C)[C@@]3(F)[C@@H](O)C[C@@]21C [Fluoxymesterone] | 5 (≈ 14.9 µM) | 5 (≈ 14.9 µM) | 5 (≈ 14.9 µM) | 15 (≈ 44.6 µM) | > 50000 | 5000 (≈ 14900 µM) | > 50000 | > 50000 |  |  |  |  |  |  |  |  | 
C[C@]12CCC(=O)C[C@@H]1CC[C@@H]1[C@@H]2CC[C@@]2(C)[C@H]1CC[C@]2(C)O [Methyldihydrotestosterone] |  |  |  |  |  |  |  |  |  |  |  |  |  |  |  |  | Solubility in DMSO, Lab 1 ([1]; DMSO, Lab 1, highest tested 50 mg/ml): 5000 µg/mL (≈ 16400 µM); Solubility in DMSO, Lab 2 ([1]; DMSO, Lab 2, highest tested 50 mg/ml): 5000 µg/mL (≈ 16400 µM); Solubility in DMSO, Lab 3 ([1]; DMSO, Lab 3, highest tested 50 mg/ml): 15000 µg/mL (≈ 49300 µM); Solubility in DMSO, Lab 4 ([1]; DMSO, Lab 4, highest tested 50 mg/ml): 15000 µg/mL (≈ 49300 µM); Solubility in medium, Lab 1 ([1]; assay medium, Lab 1): 5 µg/mL (≈ 16.4 µM); Solubility in medium, Lab 2 ([1]; assay medium, Lab 2): 5 µg/mL (≈ 16.4 µM); Solubility in medium, Lab 3 ([1]; assay medium, Lab 3): 5 µg/mL (≈ 16.4 µM); Solubility in medium, Lab 4 ([1]; assay medium, Lab 4): 5 µg/mL (≈ 16.4 µM)
CC(O)(CS(=O)(=O)c1ccc(F)cc1)C(=O)Nc1ccc(C#N)c(C(F)(F)F)c1 (stereo not shown) [Bicalutamide] |  |  |  |  |  |  |  |  | > 50000 | > 50000 | > 50000 | > 50000 | > 50 | > 50 | > 50 | > 50 | 
CC(=O)O[C@]1(C(C)=O)CC[C@H]2[C@@H]3C[C@H](C)C4=CC(=O)CC[C@]4(C)[C@H]3CC[C@@]21C [Medroxyprogesterone acetate] |  |  |  |  |  |  |  |  | 1500 | 15000 | 15000 | 5000 | 1.5 | 5 | 15 | 5 | 
CCCCOC(=O)c1ccccc1C(=O)OCc1ccccc1 [Benzylbutyl phthalate] | 1.5 (≈ 4.8 µM) | > 50 | 15 (≈ 48 µM) | 15 (≈ 48 µM) | > 50000 | > 50000 | > 50000 | > 50000 |  |  |  |  |  |  |  |  | 
C[C@]12C=CC3=C4CCC(=O)C=C4CC[C@H]3[C@@H]1CC[C@@H]2O [17β-Trenbolone] |  |  |  |  |  |  |  |  |  |  |  |  |  |  |  |  | Antagonist classification per run, Lab 1 [2]: N N N; Antagonist classification per run, Lab 2 [2]: N N N; Antagonist classification per run, Lab 3 [2]: − N N; Antagonist classification per run, Lab 4 [2]: N N N; Agonist classification per run, Lab 1 [3]: P P P; Agonist classification per run, Lab 2 [3]: P P P; Agonist classification per run, Lab 3 [3]: P P P; Agonist classification per run, Lab 4 [3]: P P P; EC50 [3]: 0.245 nM
